In US11440905B2, “Biheterocyclic compound” (SUMITOMO PHARMA CO., LTD., priority 2016, dated 2022):
Counter-ions that a name gives are not always drawn.

Target: T1, mouse Sema3A binding to CHO cells stably-expressing mouse neuropilin (Mus musculus, UniProt O08665)
T1 construct: host or cells: CHO cells stably expressing the neuropilin partner
T1 sequence (O08665 21-772): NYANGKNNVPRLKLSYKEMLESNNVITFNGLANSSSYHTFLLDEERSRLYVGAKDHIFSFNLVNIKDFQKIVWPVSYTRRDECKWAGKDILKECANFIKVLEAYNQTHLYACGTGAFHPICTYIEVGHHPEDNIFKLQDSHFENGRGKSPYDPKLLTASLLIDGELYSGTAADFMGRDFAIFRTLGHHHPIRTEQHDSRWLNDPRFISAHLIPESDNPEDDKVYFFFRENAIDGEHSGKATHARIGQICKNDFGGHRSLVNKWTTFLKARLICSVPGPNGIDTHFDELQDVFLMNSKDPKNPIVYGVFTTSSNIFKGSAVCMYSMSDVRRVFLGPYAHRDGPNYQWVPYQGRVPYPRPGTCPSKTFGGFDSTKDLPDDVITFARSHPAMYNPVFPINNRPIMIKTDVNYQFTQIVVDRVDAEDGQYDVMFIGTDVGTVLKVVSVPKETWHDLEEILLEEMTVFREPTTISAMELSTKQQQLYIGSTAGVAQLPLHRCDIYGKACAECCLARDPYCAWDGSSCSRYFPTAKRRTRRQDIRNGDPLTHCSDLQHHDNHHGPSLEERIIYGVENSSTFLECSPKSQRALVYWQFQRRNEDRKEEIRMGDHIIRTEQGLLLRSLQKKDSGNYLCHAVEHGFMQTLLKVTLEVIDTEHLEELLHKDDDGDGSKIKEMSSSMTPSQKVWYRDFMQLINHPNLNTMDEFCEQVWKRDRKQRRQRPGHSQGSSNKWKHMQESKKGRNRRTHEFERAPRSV
Experiment: Inhibitory activity for the neuropilin-binding activity caused by Sema3A (Test 2)
Settings: 1 h, AP-Sema3A, read-out: residual ratio (%) of avidity (Sema3A-neuropilin binding); for remaining activity at 100 µM: 100 μM test compound, smaller value = more potent binding inhibition
Method: (Test 2) Inhibitory Activity for the Neuropilin-Binding Activity Caused by Sema3A
To each well of 96 well-plate (IWAKI) was seeded CHO cells stably-expressing mouse neuropilin, the cells were cultivated in F12 medium (10% fetal bovine serum, 100 units/mL penicillin, and 100 μg/mL streptomycin) under the condition of 5% CO2 and 37° C. for 18 hours. And then, the culture medium was removed, and mouse Sema3A which included each test compound and alkaline phosphatase (AP) in various concentrations was added thereto, and the culture was reacted at room temperature for more one hour. Then, the reaction solution was removed, the residual cells were washed with HBSS solution (0.25% BSA) and dissolved in a solution (10 mM Tris including 1% Triton X-100) at 65° C. for one hour, and the AP activity thereof was measured.

| Structure (SMILES) | remaining activity at 100 µM [%] | remaining activity at 10 µM (10 μM test compound (footnote *)) [%] |
| --- | --- | --- |
| Cn1cc(-c2coc3cc(O)c(O)c(C(=O)OCCOCCC(=O)O)c3c2=O)c(=O)c2cc(O)c(O)cc21 [Example 20, 3-[2-({[3-(6,7-Dihydroxy-1-methyl-4-oxo-1,4-dihydroquinolin-3-yl)-6,7-dihydroxy-4-oxo-4H-chromen-5-yl]carbonyl}oxy)ethoxy]propanoic acid] | 56.5 |  |
| Cn1cc(-c2coc3cc(O)c(O)c(C(=O)OCCOCCC(=O)N[C@@H](CCC(=O)O)C(=O)O)c3c2=O)c(=O)c2cc(O)c(O)cc21 [Example 21, N-{3-[2-({[3-(6,7-Dihydroxy-1-methyl-4-oxo-1,4-dihydroquinolin-3-yl)-6,7-dihydroxy-4-oxo-4H-chromen-5-yl]carbonyl}oxy)ethoxy]propanoyl}-L-glutamic acid] | 58.5 |  |
| Cn1cc(-c2coc3cc(O)c(O)c(C(=O)OCCN(CC(=O)O)CC(=O)O)c3c2=O)c(=O)c2cc(O)c(O)cc21 [Example 22, 2,2′-{[2-({[3-(6,7-Dihydroxy-1-methyl-4-oxo-1,4-dihydroquinolin-3-yl)-6,7-dihydroxy-4-oxo-4H-chromen-5-yl]carbonyl}oxy)ethyl]imino}-di-acetic acid] | 62.1 |  |
| CN1CCN(C)C(COC(=O)c2c(O)c(O)cc3occ(-c4cn(C)c5cc(O)c(O)cc5c4=O)c(=O)c23)C1 (centres unmarked) [Example 25, (1,4-Dimethylpiperazin-2-yl)methyl 3-(6,7-dihydroxy-1-methyl-4-oxo-1,4-dihydroquinolin-3-yl)-6,7-dihydroxy-4-oxo-4H-chromene-5-carboxylate hydrochloride] | 90.5 |  |

Further lines, results first:

| remaining activity at 100 µM [%] | remaining activity at 10 µM (10 μM test compound (footnote *)) [%] | Structure (SMILES) |
| --- | --- | --- |
|  | 97.8 | Cn1ccnc1COC(=O)c1c(O)c(O)cc2occ(-c3cn(C)c4cc(O)c(O)cc4c3=O)c(=O)c12 [Example 26, (1-Methyl-1H-imidazol-2-yl)methyl 3-(6,7-dihydroxy-1-methyl-4-oxo-1,4-dihydroquinolin-3-yl)-6,7-dihydroxy-4-oxo-4H-chromene-5-carboxylate hydrochloride] |
| 87.1 |  | Cn1cc(-c2coc3cc(O)c(O)c(C(=O)OCCN4CCC(O)C4)c3c2=O)c(=O)c2cc(O)c(O)cc21 (centres unmarked) [Example 28, 2-(3-Hydroxypyrrolidin-1-yl)ethyl 3-(6,7-dihydroxy-1-methyl-4-oxo-1,4-dihydroquinolin-3-yl)-6,7-dihydroxy-4-oxo-4H-chromene-5-carboxylate] |
| 49.3 |  | Cn1cc(-c2coc3cc(O)c(O)c(C(=O)OCCOCCOCCOCCOCCO)c3c2=O)c(=O)c2cc(O)c(O)cc21 [Example 29, 14-Hydroxy-3,6,9,12-tetraoxatetradec-1-yl 3-(6,7-dihydroxy-1-methyl-4-oxo-1,4-dihydroquinolin-3-yl)-6,7-dihydroxy-4-oxo-4H-chromene-5-carboxylate] |
| 69.4 |  | COC(=O)CCOCCOC(=O)c1c(O)c(O)cc2occ(-c3cn(C)c4cc(O)c(O)cc4c3=O)c(=O)c12 [Example 31, 2-(3-Methoxy-3-oxopropoxy)ethyl 3-(6,7-dihydroxy-1-methyl-4-oxo-1,4-dihydroquinolin-3-yl)-6,7-dihydroxy-4-oxo-4H-chromene-5-carboxylate] |
